Laboratory results as given in patent EP0414533A1, “Use of iodopropargyl esters of alpha-amino acid derivatives as antimicrobial agents” (ROHM AND HAAS COMPANY, priority 1989, dated 1991).
Converted amounts (≈) assume the structure as drawn. Read-outs that look alike come from different tables or passages of the source.

What was measured:
Format in all cases: cell-based
[1] = tested on: Pythium ultimum (PYU); assay: In-vitro plant fungicide test; details: Globisporangium ultimum
[2] = tested on: Xanthomonas campestris (XAN); assay: In-vitro plant fungicide test; parameters: inhibition of growth: concentration or dose not given beside the values; details: Xanthomonas campestris
[3] = tested on: Rhizoctonia solani (RHI); assay: In-vitro plant fungicide test; details: Rhizoctonia solani
[4] = tested on: ALT; assay: In-vitro plant fungicide test; details: Table IVb, read-out: % Control at (ppm) indicated ALT
[5] = tested on: Septoria nodorum (SEP); assay: In-vitro plant fungicide test; details: Parastagonospora nodorum
[6] = tested on: COL; assay: In-vitro plant fungicide test; details: Table IVb, read-out: % Control at (ppm) indicated COL
[7] = tested on: Botrytis cinerea (BOC); assay: In-vitro plant fungicide test; details: Botrytis cinerea
[8] = tested on: MON; assay: In-vitro plant fungicide test; details: Table IVb, read-out: % Control at (ppm) indicated MON
[9] = tested on: CER; assay: In-vitro plant fungicide test; details: Table IVb, read-out: % Control at (ppm) indicated CER
[10] = tested on: PSH; assay: In-vitro plant fungicide test; details: Table IVb, read-out: % Control at (ppm) indicated PSH
[11] = tested on: THREE FUNGI; assay: MIC test against three fungi in Mycophile Broth, pH 5.0, read after 8 days (Table VII); details: 192 h, serial dilutions from 50 ppm, read after 8 days of incubation
[12] = tested on: Cochliobolus sativus (HEL); assay: In-vitro plant fungicide test; details: Bipolaris sorokiniana
[13] = Table IVb, read-out: % Control at (ppm) indicated XAN

CC(C)(C)OC(=O)NCC(=O)OCC#CI [Compound 1, N-t-butoxycarbonylglycine iodopropargyl ester]
inhibition of growth at 1.5 ppm ([1]; 1.5 ppm, Table IVb, read-out: % Control at (ppm) indicated PYU): 100%
inhibition of growth at 6 ppm ([1]; 6 ppm, Table IVb, read-out: % Control at (ppm) indicated PYU): 100%
inhibition of growth at 25 ppm ([1]; Table IVa, read-out: % Control at 25 ppm PYU): 100%
inhibition of growth at 25 ppm ([1]; Table IVb, read-out: % Control at (ppm) indicated PYU): 100%
inhibition of growth at 0.2 ppm ([1]; .2 ppm, Table IVb, read-out: % Control at (ppm) indicated PYU): 0%
inhibition of growth at 0.4 ppm ([1]; .4 ppm, Table IVb, read-out: % Control at (ppm) indicated PYU): 0%
inhibition of growth at 0.8 ppm ([1]; .8 ppm, Table IVb, read-out: % Control at (ppm) indicated PYU): 0%
inhibition of growth at 1.5 ppm ([2]; 1.5 ppm, Table IVb, read-out: % Control at (ppm) indicated XAN): 0%
inhibition of growth at 3 ppm ([2]; 3 ppm, Table IVb, read-out: % Control at (ppm) indicated XAN): 0%
inhibition of growth at 6 ppm ([2]; 6 ppm, Table IVb, read-out: % Control at (ppm) indicated XAN): 0%
inhibition of growth at 25 ppm ([2]; Table IVa, read-out: % Control at 25 ppm XAN): 0%
inhibition of growth at 25 ppm [2, 13]: 0%
inhibition of growth at 0.2 ppm ([2]; .2 ppm, Table IVb, read-out: % Control at (ppm) indicated XAN): 0%
inhibition of growth at 0.4 ppm ([2]; .4 ppm, Table IVb, read-out: % Control at (ppm) indicated XAN): 0%
inhibition of growth at 0.8 ppm ([2]; .8 ppm, Table IVb, read-out: % Control at (ppm) indicated XAN): 0%
inhibition of growth [2, 13]: 0%
inhibition of growth at 1.5 ppm ([3]; 1.5 ppm, Table IVb, read-out: % Control at (ppm) indicated RHI): 100%
inhibition of growth at 6 ppm ([3]; 6 ppm, Table IVb, read-out: % Control at (ppm) indicated RHI): 100%
inhibition of growth at 25 ppm ([3]; Table IVa, read-out: % Control at 25 ppm RHI): 100%
inhibition of growth at 25 ppm ([3]; Table IVb, read-out: % Control at (ppm) indicated RHI): 100%
inhibition of growth at 0.2 ppm ([3]; .2 ppm, Table IVb, read-out: % Control at (ppm) indicated RHI): 0%
inhibition of growth at 0.4 ppm ([3]; .4 ppm, Table IVb, read-out: % Control at (ppm) indicated RHI): 75%
inhibition of growth at 0.8 ppm ([3]; .8 ppm, Table IVb, read-out: % Control at (ppm) indicated RHI): 100%
inhibition of growth at 1.5 ppm ([4]; 1.5 ppm): 0%
inhibition of growth at 3 ppm ([4]; 3 ppm): 50%
inhibition of growth at 6 ppm ([4]; 6 ppm): 50%
inhibition of growth at 12 ppm ([4]; 12 ppm): 100%
inhibition of growth at 25 ppm ([4]; 25 ppm): 100%
inhibition of growth at 0.2 ppm ([4]; .2 ppm): 0%
inhibition of growth at 0.4 ppm ([4]; .4 ppm): 0%
inhibition of growth at 0.8 ppm ([4]; .8 ppm): 0%
inhibition of growth at 1.5 ppm ([5]; 1.5 ppm, Table IVb, read-out: % Control at (ppm) indicated SEP): 0%
inhibition of growth at 6 ppm ([5]; 6 ppm, Table IVb, read-out: % Control at (ppm) indicated SEP): 100%
inhibition of growth at 25 ppm ([5]; Table IVa, read-out: % Control at 25 ppm SEP): 100%
inhibition of growth at 25 ppm ([5]; Table IVb, read-out: % Control at (ppm) indicated SEP): 100%
inhibition of growth at 0.2 ppm ([5]; .2 ppm, Table IVb, read-out: % Control at (ppm) indicated SEP): 0%
inhibition of growth at 0.4 ppm ([5]; .4 ppm, Table IVb, read-out: % Control at (ppm) indicated SEP): 0%
inhibition of growth at 0.8 ppm ([5]; .8 ppm, Table IVb, read-out: % Control at (ppm) indicated SEP): 0%
inhibition of growth at 1.5 ppm ([6]; 1.5 ppm): 0%
inhibition of growth at 3 ppm ([6]; 3 ppm): 0%
inhibition of growth at 6 ppm ([6]; 6 ppm): 0%
inhibition of growth at 12 ppm ([6]; 12 ppm): 95%
inhibition of growth at 25 ppm ([6]; 25 ppm): 95%
inhibition of growth at 0.2 ppm ([6]; .2 ppm): 0%
inhibition of growth at 0.4 ppm ([6]; .4 ppm): 0%
inhibition of growth at 0.8 ppm ([6]; .8 ppm): 0%
inhibition of growth at 1.5 ppm ([7]; 1.5 ppm, Table IVb, read-out: % Control at (ppm) indicated BOC): 0%
inhibition of growth at 6 ppm ([7]; 6 ppm, Table IVb, read-out: % Control at (ppm) indicated BOC): 0%
inhibition of growth at 25 ppm ([7]; Table IVa, *=Phytotoxic, read-out: % Control at 25 ppm BOC): 100%
inhibition of growth at 25 ppm ([7]; Table IVb, read-out: % Control at (ppm) indicated BOC): 100%
inhibition of growth at 0.2 ppm ([7]; .2 ppm, Table IVb, read-out: % Control at (ppm) indicated BOC): 0%
inhibition of growth at 0.4 ppm ([7]; .4 ppm, Table IVb, read-out: % Control at (ppm) indicated BOC): 0%
inhibition of growth at 0.8 ppm ([7]; .8 ppm, Table IVb, read-out: % Control at (ppm) indicated BOC): 0%
inhibition of growth at 1.5 ppm ([8]; 1.5 ppm): 75%
inhibition of growth at 6 ppm ([8]; 6 ppm): 100%
inhibition of growth at 25 ppm ([8]; 25 ppm): 100%
inhibition of growth at 0.2 ppm ([8]; .2 ppm): 0%
inhibition of growth at 0.4 ppm ([8]; .4 ppm): 0%
inhibition of growth at 0.8 ppm ([8]; .8 ppm): 0%
inhibition of growth at 1.5 ppm ([9]; 1.5 ppm): 0%
inhibition of growth at 6 ppm ([9]; 6 ppm): 100%
inhibition of growth at 25 ppm ([9]; 25 ppm): 100%
inhibition of growth at 0.2 ppm ([9]; .2 ppm): 0%
inhibition of growth at 0.4 ppm ([9]; .4 ppm): 0%
inhibition of growth at 0.8 ppm ([9]; .8 ppm): 0%
inhibition of growth at 1.5 ppm ([10]; 1.5 ppm): 100%
inhibition of growth at 6 ppm ([10]; 6 ppm): 100%
inhibition of growth at 25 ppm ([10]; 25 ppm): 100%
inhibition of growth at 0.2 ppm ([10]; .2 ppm): 0%
inhibition of growth at 0.4 ppm ([10]; .4 ppm): 0%
inhibition of growth at 0.8 ppm ([10]; .8 ppm): 75%
MIC ([11]; Aspergillus niger, read-out: MIC ANIG): 3.2 µg/mL (≈ 9.44 µM)
MIC ([11]; Aureobasidium pullulans, read-out: MIC APUL): 12.5 µg/mL (≈ 36.9 µM)
MIC ([11]; Gloeophyllum trabeum, read-out: MIC GTRA): 1.6 µg/mL (≈ 4.72 µM)
inhibition of growth at 1.5 ppm ([12]; 1.5 ppm, Table IVb, read-out: % Control at (ppm) indicated HEL): 0%
inhibition of growth at 6 ppm ([12]; 6 ppm, Table IVb, read-out: % Control at (ppm) indicated HEL): 75%
inhibition of growth at 25 ppm ([12]; Table IVa, *=Phytotoxic, read-out: % Control at 25 ppm HEL): 100%
inhibition of growth at 25 ppm ([12]; Table IVb, read-out: % Control at (ppm) indicated HEL): 100%
inhibition of growth at 0.2 ppm ([12]; .2 ppm, Table IVb, read-out: % Control at (ppm) indicated HEL): 0%
inhibition of growth at 0.4 ppm ([12]; .4 ppm, Table IVb, read-out: % Control at (ppm) indicated HEL): 0%
inhibition of growth at 0.8 ppm ([12]; .8 ppm, Table IVb, read-out: % Control at (ppm) indicated HEL): 0%
